Legend:
human fibroblasts = test: CPP-induced generation of human iPSCs; type: cell-based
From the text: It is known that persistent expression (about 2 weeks) of the reprogramming factors is required using viral vectors to generate mouse iPSCs. […] We hypothesized that activation of the TLR3 pathway might facilitate epigenetic alterations required for full transcriptional effect of the CPPs. We also attempted to mimic the biphasic effect of the reprogramming factors introduced as viral vectors by reducing the dose of CPPs after 6 days. Accordingly, we exposed human fibroblasts to the four CPP-transcription factors (Oct4-R11, Sox2-R11, Klf4-R11 and cMyc-R11) (at a dose of 200 nM for days 1-6, and a dose of 100 nM for days 7-21), in the presence or absence of poly I:C (300 ng/ml) for days 1-6 (FIG. 7A). The cultures were transferred to feeder cells (inactivated MEFs) at day 26. In the presence of poly I:C, Oct4 expression was accelerated (FIG. 7B). […] Small colonies were observed by day 21 and ES like colonies appeared by day 30, many of which expressed TRA-1-81 as indicated by live cell staining. By contrast, in human fibroblasts not exposed to poly I:C, colonies were not observed until day 30 days. By day 40, colony number was increased by more than 4-fold in cells exposed to poly I:C (FIG. 7C). Application of our insights regarding the role of TLR3 signaling in nuclear reprogramming permitted us to successfully reprogram human fibroblasts to pluripotency using CPPs.
Protein-iPSCs: Recombinant Oct4, Sox2, Klf4, and cMyc human proteins (CPPs) contained an eleven-arginine membrane penetration domain at the C terminus were obtained from Stemgent. Human fibroblasts were treated with CPPs encoding the reprogramming factors (CPP-Oct4, CPP-Sox2, CPP-Klf4 and CPP-Myc) daily for 6 days with 200 nM CPPs, followed by daily treatments of 100 nM CPPs from day 7 to day 20. Poly I:C (300 ng/ml) or vehicle was added to the cell simultaneously only up to day 6. The cells were passed onto MEF feeders at day 30. After 20 days of CPP treatments, wells were closely scanned for colonies.
Immunostaining of Live Cells For the detection of SSEA-1 or TRA-1-81 in live cells, the primary Ab (anti-mouse SSEA-1, antihuman TRA-1-81, Stemgent) was diluted to a final concentration of 2.5 to 5 μg/ml in fresh cell culture medium and incubated with cells for 30 minutes at 37° C. and 5% CO2. After gentle washing the cells were examined under a fluorescent microscope.

[1] = system: MEFs expressing a dox-inducible polycistronic transgene construct encoding the four reprogramming factors; test: Doxycycline-inducible iPSC generation from secondary MEFs; type: cell-based, mouse; details: Dox-treated MEFs
Procedure: To further test the hypothesis that TLR3 activation was required for efficient reprogramming, we isolated MEFs from murine embryos expressing a doxycycline (Dox)-inducible polycistronic transgene construct encoding the four reprogramming factors. To generate iPSCs, 10^5 MEFs/per well in 6-well plates were treated with Dox. In some wells, poly I:C was also added for the initial 6 days of the reprogramming process. In other wells, cells were infected with pMX-GFP on the first day of Dox treatment. Poly I:C or pMX-GFP each accelerated the expression of Oct4 and Sox2 (FIG. 6A). […] Similarly, infection with pMX-GFP seemed to accelerate colony formation, as a number of small colonies were observed by day 7 in the viral particle infected group (FIG. 16). By day 14, typical mES-like colonies appeared, many of which had activated SSEA-1. At this time point, the number of typical SSEA-1^+ colonies were increased by 7-8 fold in wells exposed to viral particles or poly I:C (FIG. 6B). Colony number increased further by day 21-28 (FIGS. 6B and 6C). […]
Doxycycline-induced iPSCs: As previously described (Wernig et al., 2008), MEFs from chimeric embryos at E13.5 were isolated. […] The generation of iPSC colonies was monitored daily and scored at days 14 and 21. […]

## Polyinosinicpolycytidylic acid [Poly I:C]
Human fibroblasts; day 40, cells exposed to poly I:C versus not
  increase in colony number: more than 4 fold
Human fibroblasts; four CPPs 200 nM days 1-6, 100 nM days 7-21, poly I:C 300 ng/ml days 1-6
  Oct4 expression: accelerated
Human fibroblasts; four CPPs plus poly I:C 300 ng/ml days 1-6
  iPSC generation: accelerated iPSC generation
Human fibroblasts; four CPPs plus poly I:C 300 ng/ml days 1-6, without poly I:C not until day 30
  small colonies observed by: ≤ 21 days
[1]; 3 days
  changes in the morphology of the MEFs: accelerated changes in the morphology
[1]; poly I:C initial 6 days or pMX-GFP on first day
  expression of Oct4 and Sox2: accelerated

Reference: patent publication US20130202649A1, “ACTIVATION OF INNATE IMMUNITY FOR NUCLEAR REPROGRAMMING OF SOMATIC CELLS” (The Board of Trustees of the Leland Stanford Junior …, priority 2012, published 2013)
